Experiments:
Experiment in all cases: Test D pre-/postemergence plant response
Assay type in all cases: in vivo
[1] = tested on: Russian thistle (Salsola kali); settings: Preemergence, 16 g ai/ha; scale 0 to 100, 0 no effect, 100 complete control
Method in brief: (§1)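 Ratings come from greenhouse-grown weeds in loam and sand treated pre- or postemergence (postemergence height 2 to 18 cm). Evaluation after 14–21 days, visual, relative to controls, on a 0–100 control scale.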

[2] = tested on: Surinam grass (Brachiaria decumbens)
Method in brief: as §1

[3] = tested on: barnyardgrass (Echinochloa crus-galli)
Method in brief: as §1

[4] = tested on: bluegrass (annual bluegrass, Poa annua)
Method in brief: as §1

[5] = tested on: dallisgrass (Paspalum dilatatum)
Method in brief: as §1

[6] = tested on: green foxtail (Setaria viridis)
Method in brief: as §1

[7] = tested on: guineagrass (Panicum maximum)
Method in brief: as §1

kochia (Kochia scoparia) = tested on: kochia (Kochia scoparia)
Method in brief: as §1

[8] = tested on: large crabgrass (Digitaria sanguinalis)
Method in brief: as §1

[9] = tested on: mallow (common mallow, Malva sylvestris); settings: Postemergence
Method in brief: as §1

[10] = tested on: morningglory (pitted morningglory, Ipomoea lacunosa)
Method in brief: as §1

[11] = tested on: naked crabgrass (Digitaria nuda)
Method in brief: as §1

[12] = tested on: quackgrass (Elytrigia repens)
Method in brief: as §1

[13] = tested on: ragweed (common ragweed, Ambrosia elatior)
Method in brief: as §1

[14] = tested on: sandbur (southern sandbur, Cenchrus echinatus)
Method in brief: as §1

[15] = tested on: signalgrass (broadleaf signalgrass, Brachiaria platyphylla)
Method in brief: as §1

[16] = Postemergence, 31 g ai/ha, scale 0 to 100
[17] = Postemergence, 125 g ai/ha, scale 0 to 100 (0 no effect, 100 complete control)
[18] = Postemergence, 62 g ai/ha, scale 0 to 100 (0 no effect, 100 complete control)
[19] = Preemergence, 16 g ai/ha, scale 0 to 100, 0 no effect, 100 complete control
[20] = Preemergence, 31 g ai/ha, scale 0 to 100 (0 no effect, 100 complete control)
[21] = Preemergence, 125 g ai/ha, scale 0 to 100
[22] = Postemergence, 16 g ai/ha, scale 0 to 100
[23] = Postemergence, 31 g ai/ha, scale 0 to 100 (0 no effect, 100 complete control)
[24] = Preemergence, 62 g ai/ha, scale 0 to 100

`Cc1ccc(Cl)cc1-n1c(-c2ccccc2)ncc(C(=O)C2=C(O)CCCC2=O)c1=O` [Compound 52] was tested, and the “Plant response rating, Russian Thistle” value [1] was 0, the “Plant response rating, Surinam Grass” value [2, 16] was 65 and the “Plant response rating, Surinam Grass” value [2, 17] was 90. For the same molecule, the “Plant response rating, Surinam Grass” value [2, 18] was 80, the “Plant response rating, Surinam Grass” value [2, 19] was 0 and the “Plant response rating, Surinam Grass” value [2, 20] was 98. For the same molecule, the “Plant response rating, Surinam Grass” value [2, 21] was 98, the “Plant response rating, Barnyardgrass” value [3, 22] was 75 and the “Plant response rating, Barnyardgrass” value [3, 23] was 75. The “Plant response rating, Barnyardgrass” value [3, 17] was 80, the “Plant response rating, Barnyardgrass” value [3, 18] was 75 and the “Plant response rating, Barnyardgrass” value [3, 19] was 0. For the same molecule, the “Plant response rating, Barnyardgrass” value [3, 20] was 0, the “Plant response rating, Barnyardgrass” value [3, 24] was 0 and the “Plant response rating, Barnyardgrass” value [3, 21] was 10. The “Plant response rating, Bluegrass” value [4, 22] was 15, the “Plant response rating, Bluegrass” value [4, 23] was 25 and the “Plant response rating, Bluegrass” value [4, 17] was 35. The “Plant response rating, Bluegrass” value [4, 18] was 35, the “Plant response rating, Bluegrass” value [4, 19] was 0 and the “Plant response rating, Bluegrass” value [4, 20] was 0. For the same molecule, the “Plant response rating, Bluegrass” value [4, 24] was 0, the “Plant response rating, Bluegrass” value [4, 21] was 20 and the “Plant response rating, Dallisgrass” value [5, 22] was 60. For the same molecule, the “Plant response rating, Dallisgrass” value [5, 16] was 65, the “Plant response rating, Dallisgrass” value [5, 17] was 75 and the “Plant response rating, Dallisgrass” value [5, 18] was 70. For the same molecule, the “Plant response rating, Dallisgrass” value [5, 19] was 5, the “Plant response rating, Dallisgrass” value [5, 20] was 10 and the “Plant response rating, Dallisgrass” value [5, 24] was 50. The “Plant response rating, Dallisgrass” value [5, 21] was 95, the “Plant response rating, Foxtail, Green” value [6, 22] was 70 and the “Plant response rating, Foxtail, Green” value [6, 16] was 70. The “Plant response rating, Foxtail, Green” value [6, 17] was 95, the “Plant response rating, Foxtail, Green” value [6, 18] was 85 and the “Plant response rating, Foxtail, Green” value [6, 19] was 0. For the same molecule, the “Plant response rating, Foxtail, Green” value [6, 20] was 0, the “Plant response rating, Foxtail, Green” value [6, 24] was 0 and the “Plant response rating, Foxtail, Green” value [6, 21] was 15. For the same molecule, the “Plant response rating, Guineagrass” value [7, 22] was 50, the “Plant response rating, Guineagrass” value [7, 16] was 70 and the “Plant response rating, Guineagrass” value [7, 17] was 75. For the same molecule, the “Plant response rating, Guineagrass” value [7, 18] was 75, the “Plant response rating, Guineagrass” value [7, 19] was 0 and the “Plant response rating, Guineagrass” value [7, 24] was 50. For the same molecule, the “Plant response rating, Kochia” value (kochia (Kochia scoparia); [22]) was 0, the “Plant response rating, Kochia” value (kochia (Kochia scoparia); [16]) was 0 and the “Plant response rating, Kochia” value (kochia (Kochia scoparia); [17]) was 40. For the same molecule, the “Plant response rating, Kochia” value (kochia (Kochia scoparia); [18]) was 0, the “Plant response rating, Kochia” value (kochia (Kochia scoparia); [20]) was 25 and the “Plant response rating, Kochia” value (kochia (Kochia scoparia); [24]) was 25. For the same molecule, the “Plant response rating, Kochia” value (kochia (Kochia scoparia); [21]) was 35, the “Plant response rating, Crabgrass, Large” value [8, 22] was 65 and the “Plant response rating, Crabgrass, Large” value [8, 16] was 70. For the same molecule, the “Plant response rating, Crabgrass, Large” value [8, 17] was 70, the “Plant response rating, Crabgrass, Large” value [8, 18] was 70 and the “Plant response rating, Crabgrass, Large” value [8, 19] was 0. For the same molecule, the “Plant response rating, Crabgrass, Large” value [8, 20] was 20, the “Plant response rating, Crabgrass, Large” value [8, 24] was 75 and the “Plant response rating, Crabgrass, Large” value [8, 21] was 98. The “Plant response rating, Mallow” value ([9]; 16 g ai/ha, scale 0 to 100) was 50, the “Plant response rating, Mallow” value ([9]; 31 g ai/ha, scale 0 to 100) was 65 and the “Plant response rating, Mallow” value ([9]; 125 g ai/ha, scale 0 to 100 (0 no effect, 100 complete control)) was 75. For the same molecule, the “Plant response rating, Mallow” value ([9]; 62 g ai/ha, scale 0 to 100 (0 no effect, 100 complete control)) was 65, the “Plant response rating, Morningglory” value [10, 22] was 50 and the “Plant response rating, Morningglory” value [10, 16] was 65. The “Plant response rating, Morningglory” value [10, 17] was 70, the “Plant response rating, Morningglory” value [10, 18] was 70 and the “Plant response rating, Morningglory” value [10, 19] was 0. The “Plant response rating, Morningglory” value [10, 20] was 0, the “Plant response rating, Morningglory” value [10, 24] was 0 and the “Plant response rating, Morningglory” value [10, 21] was 100. The “Plant response rating, Crabgrass, Naked” value [11, 22] was 70, the “Plant response rating, Crabgrass, Naked” value [11, 16] was 75 and the “Plant response rating, Crabgrass, Naked” value [11, 17] was 95. The “Plant response rating, Crabgrass, Naked” value [11, 18] was 95, the “Plant response rating, Crabgrass, Naked” value [11, 19] was 0 and the “Plant response rating, Crabgrass, Naked” value [11, 20] was 0. The “Plant response rating, Crabgrass, Naked” value [11, 24] was 20, the “Plant response rating, Crabgrass, Naked” value [11, 21] was 80 and the “Plant response rating, Quackgrass” value [12, 22] was 5. For the same molecule, the “Plant response rating, Quackgrass” value [12, 16] was 10, the “Plant response rating, Quackgrass” value [12, 17] was 20 and the “Plant response rating, Quackgrass” value [12, 18] was 15. The “Plant response rating, Quackgrass” value [12, 19] was 0, the “Plant response rating, Quackgrass” value [12, 20] was 0 and the “Plant response rating, Quackgrass” value [12, 21] was 20. The “Plant response rating, Ragweed” value [13, 22] was 90, the “Plant response rating, Ragweed” value [13, 16] was 95 and the “Plant response rating, Ragweed” value [13, 17] was 95. The “Plant response rating, Ragweed” value [13, 18] was 95, the “Plant response rating, Ragweed” value [13, 19] was 30 and the “Plant response rating, Ragweed” value [13, 20] was 50. For the same molecule, the “Plant response rating, Ragweed” value [13, 21] was 98, the “Plant response rating, Sandbur” value [14, 22] was 65 and the “Plant response rating, Sandbur” value [14, 16] was 65. For the same molecule, the “Plant response rating, Sandbur” value [14, 17] was 80, the “Plant response rating, Sandbur” value [14, 18] was 75 and the “Plant response rating, Sandbur” value [14, 19] was 0. The “Plant response rating, Sandbur” value [14, 20] was 0, the “Plant response rating, Sandbur” value [14, 21] was 98 and the “Plant response rating, Signalgrass” value [15, 22] was 50. The “Plant response rating, Signalgrass” value [15, 16] was 60, the “Plant response rating, Signalgrass” value [15, 17] was 90 and the “Plant response rating, Signalgrass” value [15, 18] was 80. The “Plant response rating, Signalgrass” value [15, 19] was 0, the “Plant response rating, Signalgrass” value [15, 20] was 0 and the “Plant response rating, Signalgrass” value [15, 21] was 90.
